Assay results taken from patent US20080057531A1, “SYSTEMS, KITS, AND METHODS FOR DETECTING CARIOGENIC BACTERIA AND ASSESSING RISK OF DENTAL CARIES” (Oregon Health and Science University, priority 2006, published 2008).
Where a SMILES comes first, the peptide text is derived from it. Bridges are numbered along the chain shown (N, C = ends). [ ]: non-standard residue; d: D form. The star is where a group is joined. Ileψ(thiazoline)Cys = CC[C@H](C)[C@H](N)C1=N[C@H](C(=O)*)CS1; dOrn = NCCC[C@@H](N)C(=O)O

Experiments:
[1] = system: non-cariogenic streptococci, such as S. sanguis; test: bacitracin selection in suspended solution format, growth measured by ATP luminescence; type: cell-based, Streptococcus sanguis; conditions: 0.5-1.0 U/ml bacitracin in BHI medium, FIG. 3
Text: (§1) FIG. 3 illustrates the relationship between bacitracin concentration and effect on growth of several oral streptococci species as measured by ATP luminescence.
(§2) With reference to FIG. 1, the linear portion of the curves in each graph illustrates a range of measurements that can be used to accurately correlate ATP concentration and relative light units. FIG. 2 illustrates that the relationship of ATP content and viable cell number is linear during exponential phase of growth. However, ATP content becomes diminished during transition from exponential phase to […] of growth. […] Cultures tested include Streptococcus mutans ATCC 700610, Streptococcus mutans A TCC 25175, Streptococcus sanguis and Streptococcus sobrinus. Overnight cultures were prepared using BHI medium and then inoculum was transferred to fresh BHI medium in the presence (0.5 U/ml-10 U/ml) or absence of bacitracin. […] Thus, the presence of sucrose may represent a further improvement of the current CariScreen device, by 1) extending the effectiveness of bacitracin selection and by 2) increasing the likelihood or allowing all oral microorganisms to remain in an exponential phase of growth, which based on FIG. 2, represents an accurate determinant of bacterial number as measured by ATP.

cariogenic S. mutans = test: as above; type: cell-based, Streptococcus mutans; conditions: 0.5-1.0 U/ml bacitracin in BHI medium, FIG. 3
Text: as §1, §2

S. sobrinus = test: as above; type: cell-based, Streptococcus sobrinus; conditions: 0.5-1.0 U/ml bacitracin in BHI medium, FIG. 3
Text: as §1, §2

S. mutans in saliva = test: bacitracin selection for S. mutans in pediatric saliva samples incubated in BHI media; type: cell-based, Streptococcus mutans; conditions: four hours of bacitracin treatment, 7% at time 0, FIG. 5
Text: FIG. 5 illustrates the bacitracin-based selection for the highly cariogenic S. mutans species in the presence of non-mutans streptococci.
This example describes a clinical study, examining the application of bacitracin selection (and sucrose growth accelerant) on oral micro-organisms found in dental plaque and saliva. This study examines up to 50 patients, with 3-4 plaque specimens and one saliva specimen per patient, and assesses the correlation between ATP content (measured by CariScreen meter and Veritas luminometer), wet weight of plaque specimens, total protein measurement, and viable bacterial numbers (total bacteria, total oral streptococci, Streptococcus mutans, and total lactobacilli as assessed with the use of plating on blood agar, mitis-salivarius agar, mitis-salivarius agar supplemented with bacitracin ([…] w/v), and Rogasa agar, respectively). […] With continued reference to FIG. 5, with four hours of bacitracin treatment the percentage of S. mutans in saliva went from 7% at time 0 to 75%. With reference to FIG. 6, a subject's saliva was added to BHI media±bacitracin (0.5 units/ml), and then incubated at 37° C. in a 5% carbon dioxide atmosphere. At times 0, 1, 2, and 4 hours samples were measured for ATP-driven bioluminescence and plated onto blood agar plates to measure total bacteria numbers. […]

[2] = system: oral streptococci, including cariogenic S. mutans and non-cariogenic S. salivarius and S. sanguis; test: sucrose as accelerant of growth of oral streptococci, suspended bacteria; type: cell-based; conditions: varying sucrose concentrations, FIG. 4
Text: (§3) FIG. 4 illustrates the effect of sucrose as a potential accelerant of growth of four different oral streptococci, increase of four different streptococci strains, including measurement of adherent bacteria, in response to varying sucrose concentrations.
as §2

S. mutans = test: sucrose effect on adherence of bacteria in a biofilm on the culture vessel; type: cell-based, Streptococcus mutans; conditions: sucrose especially at 0.5-1%, FIG. 4
Text: as §3, §2

SMILES	effect on growth [1]	effect on growth (cariogenic S. mutans)	effect on growth (S. sobrinus)	percentage of S. mutans in saliva (S. mutans in saliva)	effect on growth phase and yield [2]	effect on adherence in a biofilm coating the plastic surface of the culture vessel (S. mutans)
CC[C@H](C)[C@H](N)C1=N[C@H](C(=O)N[C@@H](CC(C)C)C(=O)N[C@H](CCC(=O)O)C(=O)N[C@H](C(=O)N[C@H]2CCCCNC(=O)[C@H](CC(N)=O)NC(=O)[C@@H](CC(=O)O)NC(=O)[C@H](Cc3cnc[nH]3)NC(=O)[C@@H](Cc3ccccc3)NC(=O)[C@H]([C@@H](C)CC)NC(=O)[C@@H](CCCN)NC2=O)[C@@H](C)CC)CS1 [bacitracin] ({Ileψ(thiazoline)Cys}-L[dE]IK[dOrn]I[dF]H[dD]N; lactam 4-C)	greatly inhibit	allows considerable break-through of growth	allows considerable break-through of growth	75%	–	–
OC[C@H]1O[C@@](CO)(O[C@H]2O[C@H](CO)[C@@H](O)[C@H](O)[C@H]2O)[C@@H](O)[C@@H]1O [sucrose]	–	–	–	–	extend the exponential phase of growth and promote increased yields at saturation	promote the increased adherance
